In US20260158017A1, “KIF18A INHIBITOR” (WIGEN BIOMEDICINE TECHNOLOGY (SHANGHAI) CO., LTD., priority 2021, published 2026):

biological target: T1, Recombinant human KIF18A (1-467His-tagged) protein (Homo sapiens, UniProt Q8NI77); test: KIF18A enzyme assay (microtubule-stimulated ATPase activity, ADP-Glo); format: biochemical; settings: 30 nM KIF18A, 75 μM ATP, 30 μg/mL pig microtubules; read-out: Inhibitory activity against KIF18A IC50
T1 construct: Recombinant human KIF18A (1-467His-tagged) protein; His; made in house
Procedure: In Vitro Assay of the Compounds of the Present Invention for Inhibiting Enzymatic Activity of KIF18A
KIF18A enzyme assay: The enzymatic activity of KIF18A after treatment with the compounds was measured by an assay of microtubule-stimulated ATPase activity. ADP generated from the ATPase reaction was measured in this assay. The compounds were serially diluted 2-fold in DMSO over a range of 22 concentration points. […] Concentrations of KIF18A protein, microtubules, and ATP in the reaction were optimized for a standardized homogenous enzyme assay using an ADP-Glo kinase/ATPase assay kit. A reaction buffer [(15 mM Tris, pH 7.5), 10 mM MgCl2, 0.01% PluronicF-68, 1 μM paclitaxel, and 30 μg/mL pig microtubules] was prepared. […] The resulting reaction mixture was incubated at room temperature for another 15 min. 5 μL of ADP-Glo reagent and 2.5 μL of the reaction mixture were mixed and the resulting mixture was incubated at room temperature for 40 min. 10 μL of ADP-Glo detection reagent was added and the mixture was incubated at room temperature for 40 min. Luminescence was read using a microplate reader and compared with that of the DMSO group, and then the inhibition percentages and IC50 values of the compounds were calculated.

T1 sequence (Q8NI77 1-467): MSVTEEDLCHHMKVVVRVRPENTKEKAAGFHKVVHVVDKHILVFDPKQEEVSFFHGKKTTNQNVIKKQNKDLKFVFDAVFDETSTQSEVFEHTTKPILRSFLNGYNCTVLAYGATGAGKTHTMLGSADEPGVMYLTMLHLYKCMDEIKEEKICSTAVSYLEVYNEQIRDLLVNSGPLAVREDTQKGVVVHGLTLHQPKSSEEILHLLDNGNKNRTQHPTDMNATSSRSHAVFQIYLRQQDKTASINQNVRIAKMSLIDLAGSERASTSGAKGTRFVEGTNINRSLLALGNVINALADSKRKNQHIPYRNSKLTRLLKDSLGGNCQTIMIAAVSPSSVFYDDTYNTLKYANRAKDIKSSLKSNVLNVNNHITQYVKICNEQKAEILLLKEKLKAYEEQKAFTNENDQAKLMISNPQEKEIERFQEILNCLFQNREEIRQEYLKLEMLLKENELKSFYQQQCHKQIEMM
T1 sequence (P02550 whole entry partner): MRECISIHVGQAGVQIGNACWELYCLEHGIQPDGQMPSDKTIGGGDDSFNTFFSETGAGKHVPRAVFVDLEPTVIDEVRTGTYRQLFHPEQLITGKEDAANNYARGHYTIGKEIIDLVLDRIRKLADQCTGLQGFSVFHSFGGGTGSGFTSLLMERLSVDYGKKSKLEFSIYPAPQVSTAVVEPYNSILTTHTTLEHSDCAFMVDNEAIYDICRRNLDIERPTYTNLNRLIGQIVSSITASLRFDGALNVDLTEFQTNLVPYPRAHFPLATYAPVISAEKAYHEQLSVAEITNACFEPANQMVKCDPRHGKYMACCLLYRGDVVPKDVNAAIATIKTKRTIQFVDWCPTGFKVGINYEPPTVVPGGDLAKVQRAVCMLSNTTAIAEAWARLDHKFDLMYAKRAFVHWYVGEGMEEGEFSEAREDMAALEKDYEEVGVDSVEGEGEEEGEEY
T1 sequence (P02554 whole entry partner): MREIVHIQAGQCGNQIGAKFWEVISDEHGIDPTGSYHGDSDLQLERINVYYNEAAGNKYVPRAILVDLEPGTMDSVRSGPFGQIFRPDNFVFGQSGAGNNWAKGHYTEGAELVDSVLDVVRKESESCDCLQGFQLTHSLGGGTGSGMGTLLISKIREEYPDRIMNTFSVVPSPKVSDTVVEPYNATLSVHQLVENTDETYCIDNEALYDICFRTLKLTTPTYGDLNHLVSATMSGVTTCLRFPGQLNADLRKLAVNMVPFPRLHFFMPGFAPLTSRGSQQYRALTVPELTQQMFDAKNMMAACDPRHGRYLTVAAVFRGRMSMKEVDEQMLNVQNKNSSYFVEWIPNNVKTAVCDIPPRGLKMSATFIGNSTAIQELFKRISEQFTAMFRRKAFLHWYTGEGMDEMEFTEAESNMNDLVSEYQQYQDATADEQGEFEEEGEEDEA

SMILES	IC50 [nM]
O=C(Nc1ccc([N+](=O)[O-])c(N2CCC3(CC3)C2)n1)c1ccc(S(=O)(=O)NCCO)cc1N1CCC2(CC1)CC2 [Compound 86]	≤ 100
O=C(Nc1ccc([N+](=O)[O-])c(OC2CCC2)n1)c1ccc(S(=O)(=O)NCCO)cc1N1CCC2(CC1)CC2 [Compound 87]	≤ 100
CC1(F)CCN(c2nc(NC(=O)c3ccc(S(=O)(=O)NCCO)cc3N3CCC4(CC3)CC4)ccc2[N+](=O)[O-])C1 (stereo not shown) [Compound 88]	≤ 100
O=C(Nc1ccc([N+](=O)[O-])c(N2CCC(F)CC2)n1)c1ccc(S(=O)(=O)NCCO)cc1N1CCC2(CC1)CC2 [Compound 89]	≤ 100
O=C(Nc1ccc([N+](=O)[O-])c(N2CC3CC3C2)n1)c1ccc(S(=O)(=O)NCCO)cc1N1CCC2(CC1)CC2 (stereo not shown) [Compound 90]	≤ 100
CC(C)(CO)Nc1nc(NC(=O)c2ccc(S(=O)(=O)NCCO)cc2N2CCC3(CC2)CC3)ccc1[N+](=O)[O-] [Compound 91]	≤ 100
O=C(Nc1ccc([N+](=O)[O-])c(N2CCOCC2)n1)c1ccc(S(=O)(=O)NCCO)cc1N1CCC2(CC1)CC2 [Compound 92]	≤ 100
C[C@@H](CO)NS(=O)(=O)c1ccc(C(=O)Nc2ccc([N+](=O)[O-])c(N3CCC(F)(F)CC3)n2)c(N2CCC3(CC2)CC3)c1 [Compound 93]	≤ 100
C[C@H](CO)NS(=O)(=O)c1ccc(C(=O)Nc2ccc([N+](=O)[O-])c(N3CCC(F)(F)CC3)n2)c(N2CCC3(CC2)CC3)c1 [Compound 94]	≤ 100
C[C@@H]1CN(c2nc(NC(=O)c3ccc(S(=O)(=O)N[C@@H](C)CO)cc3N3CCC4(CC3)CC4)ccc2[N+](=O)[O-])CCO1 [Compound 95]	≤ 100
C[C@H](CO)NS(=O)(=O)c1ccc(C(=O)Nc2ccc([N+](=O)[O-])c(N3CCO[C@H](C)C3)n2)c(N2CCC3(CC2)CC3)c1 [Compound 96]	≤ 100
C[C@@H]1CN(c2cc(NC(=O)c3cnc(NS(=O)(=O)CCO)cc3N3CCC4(CC3)CC4)ccc2[N+](=O)[O-])CCO1 [Compound 98]	≤ 100
C[C@H]1CN(c2cc(NC(=O)c3cnc(NS(=O)(=O)CCO)cc3N3CCC4(CC3)CC4)ccc2[N+](=O)[O-])CCO1 [Compound 99]	≤ 100
O=C(Nc1ccc([N+](=O)[O-])c(N2CC(F)(F)C2)c1)c1cnc(NS(=O)(=O)CCO)cc1N1CCC2(CC1)CC2 [Compound 100]	≤ 100
O=C(Nc1ccc([N+](=O)[O-])c(OCCC(F)(F)F)c1)c1cnc(NS(=O)(=O)CCO)cc1N1CCC2(CC1)CC2 [Compound 101]	≤ 100
O=C(Nc1ccc([N+](=O)[O-])c(N2CCC3(CC3)C2)c1)c1cnc(NS(=O)(=O)CCO)cc1N1CCC2(CC1)CC2 [Compound 102]	≤ 100
O=C(Nc1ccc([N+](=O)[O-])c(OC2CCC2)c1)c1cnc(NS(=O)(=O)CCO)cc1N1CCC2(CC1)CC2 [Compound 103]	≤ 100
CC1(F)CCN(c2cc(NC(=O)c3cnc(NS(=O)(=O)CCO)cc3N3CCC4(CC3)CC4)ccc2[N+](=O)[O-])C1 (stereo not shown) [Compound 104]	≤ 100
O=C(Nc1ccc([N+](=O)[O-])c(N2CCC(F)CC2)c1)c1cnc(NS(=O)(=O)CCO)cc1N1CCC2(CC1)CC2 [Compound 105]	≤ 100
O=C(Nc1ccc([N+](=O)[O-])c(N2CC3CC3C2)c1)c1cnc(NS(=O)(=O)CCO)cc1N1CCC2(CC1)CC2 (stereo not shown) [Compound 106]	≤ 100
CC(C)(CO)Nc1cc(NC(=O)c2cnc(NS(=O)(=O)CCO)cc2N2CCC3(CC2)CC3)ccc1[N+](=O)[O-] [Compound 107]	≤ 100
O=C(Nc1ccc([N+](=O)[O-])c(N2CCOCC2)c1)c1cnc(NS(=O)(=O)CCO)cc1N1CCC2(CC1)CC2 [Compound 108]	≤ 100
C[C@@H](CO)S(=O)(=O)Nc1cc(N2CCC3(CC2)CC3)c(C(=O)Nc2ccc([N+](=O)[O-])c(N3CCC(F)(F)CC3)c2)cn1 [Compound 109]	≤ 100
C[C@H](CO)S(=O)(=O)Nc1cc(N2CCC3(CC2)CC3)c(C(=O)Nc2ccc([N+](=O)[O-])c(N3CCC(F)(F)CC3)c2)cn1 [Compound 110]	≤ 100
C[C@@H]1CN(c2cc(NC(=O)c3cnc(NS(=O)(=O)[C@@H](C)CO)cc3N3CCC4(CC3)CC4)ccc2[N+](=O)[O-])CCO1 [Compound 111]	≤ 100
C[C@@H]1CN(c2cc(NC(=O)c3cnc(NS(=O)(=O)[C@H](C)CO)cc3N3CCC4(CC3)CC4)ccc2[N+](=O)[O-])CCO1 [Compound 112]	≤ 100
O=C(Nc1ccc([N+](=O)[O-])c(N2CCC(F)(F)CC2)c1)c1cnc(S(=O)(=O)NCCO)cc1N1CCC2(CC1)CC2 [Compound 113]	≤ 100
C[C@@H]1CN(c2cc(NC(=O)c3cnc(S(=O)(=O)NCCO)cc3N3CCC4(CC3)CC4)ccc2[N+](=O)[O-])CCO1 [Compound 114]	≤ 100

SMILES	IC50 [nM]
C[C@H]1CN(c2cc(NC(=O)c3cnc(S(=O)(=O)NCCO)cc3N3CCC4(CC3)CC4)ccc2[N+](=O)[O-])CCO1 [Compound 115]	≤ 100
O=C(Nc1ccc([N+](=O)[O-])c(N2CC(F)(F)C2)c1)c1cnc(S(=O)(=O)NCCO)cc1N1CCC2(CC1)CC2 [Compound 116]	≤ 100
O=C(Nc1ccc([N+](=O)[O-])c(OCCC(F)(F)F)c1)c1cnc(S(=O)(=O)NCCO)cc1N1CCC2(CC1)CC2 [Compound 117]	≤ 100
O=C(Nc1ccc([N+](=O)[O-])c(N2CCC3(CC3)C2)c1)c1cnc(S(=O)(=O)NCCO)cc1N1CCC2(CC1)CC2 [Compound 118]	≤ 100
O=C(Nc1ccc([N+](=O)[O-])c(OC2CCC2)c1)c1cnc(S(=O)(=O)NCCO)cc1N1CCC2(CC1)CC2 [Compound 119]	≤ 100
CC1(F)CCN(c2cc(NC(=O)c3cnc(S(=O)(=O)NCCO)cc3N3CCC4(CC3)CC4)ccc2[N+](=O)[O-])C1 (stereo not shown) [Compound 120]	≤ 100
O=C(Nc1ccc([N+](=O)[O-])c(N2CCC(F)CC2)c1)c1cnc(S(=O)(=O)NCCO)cc1N1CCC2(CC1)CC2 [Compound 121]	≤ 100
O=C(Nc1ccc([N+](=O)[O-])c(N2CC3CC3C2)c1)c1cnc(S(=O)(=O)NCCO)cc1N1CCC2(CC1)CC2 (stereo not shown) [Compound 122]	≤ 100
CC(C)(CO)Nc1cc(NC(=O)c2cnc(S(=O)(=O)NCCO)cc2N2CCC3(CC2)CC3)ccc1[N+](=O)[O-] [Compound 123]	≤ 100
O=C(Nc1ccc([N+](=O)[O-])c(N2CCOCC2)c1)c1cnc(S(=O)(=O)NCCO)cc1N1CCC2(CC1)CC2 [Compound 124]	≤ 100
C[C@@H](CO)NS(=O)(=O)c1cc(N2CCC3(CC2)CC3)c(C(=O)Nc2ccc([N+](=O)[O-])c(N3CCC(F)(F)CC3)c2)cn1 [Compound 125]	≤ 100
C[C@H](CO)NS(=O)(=O)c1cc(N2CCC3(CC2)CC3)c(C(=O)Nc2ccc([N+](=O)[O-])c(N3CCC(F)(F)CC3)c2)cn1 [Compound 126]	≤ 100
C[C@@H]1CN(c2cc(NC(=O)c3cnc(S(=O)(=O)N[C@@H](C)CO)cc3N3CCC4(CC3)CC4)ccc2[N+](=O)[O-])CCO1 [Compound 127]	≤ 100
C[C@H](CO)NS(=O)(=O)c1cc(N2CCC3(CC2)CC3)c(C(=O)Nc2ccc([N+](=O)[O-])c(N3CCO[C@H](C)C3)c2)cn1 [Compound 128]	≤ 100
C[C@@H]1CN(c2nc(NC(=O)c3cnc(NS(=O)(=O)CCO)cc3N3CCC4(CC3)CC4)ccc2[N+](=O)[O-])CCO1 [Compound 130]	≤ 100
C[C@H]1CN(c2nc(NC(=O)c3cnc(NS(=O)(=O)CCO)cc3N3CCC4(CC3)CC4)ccc2[N+](=O)[O-])CCO1 [Compound 131]	≤ 100
O=C(Nc1ccc([N+](=O)[O-])c(N2CC(F)(F)C2)n1)c1cnc(NS(=O)(=O)CCO)cc1N1CCC2(CC1)CC2 [Compound 132]	≤ 100
O=C(Nc1ccc([N+](=O)[O-])c(OCCC(F)(F)F)n1)c1cnc(NS(=O)(=O)CCO)cc1N1CCC2(CC1)CC2 [Compound 133]	≤ 100
O=C(Nc1ccc([N+](=O)[O-])c(N2CCC3(CC3)C2)n1)c1cnc(NS(=O)(=O)CCO)cc1N1CCC2(CC1)CC2 [Compound 134]	≤ 100
O=C(Nc1ccc([N+](=O)[O-])c(OC2CCC2)n1)c1cnc(NS(=O)(=O)CCO)cc1N1CCC2(CC1)CC2 [Compound 135]	≤ 100
CC1(F)CCN(c2nc(NC(=O)c3cnc(NS(=O)(=O)CCO)cc3N3CCC4(CC3)CC4)ccc2[N+](=O)[O-])C1 (stereo not shown) [Compound 136]	≤ 100
O=C(Nc1ccc([N+](=O)[O-])c(N2CCC(F)CC2)n1)c1cnc(NS(=O)(=O)CCO)cc1N1CCC2(CC1)CC2 [Compound 137]	≤ 100
O=C(Nc1ccc([N+](=O)[O-])c(N2CC3CC3C2)n1)c1cnc(NS(=O)(=O)CCO)cc1N1CCC2(CC1)CC2 (stereo not shown) [Compound 138]	≤ 100
CC(C)(CO)Nc1nc(NC(=O)c2cnc(NS(=O)(=O)CCO)cc2N2CCC3(CC2)CC3)ccc1[N+](=O)[O-] [Compound 139]	≤ 100
O=C(Nc1ccc([N+](=O)[O-])c(N2CCOCC2)n1)c1cnc(NS(=O)(=O)CCO)cc1N1CCC2(CC1)CC2 [Compound 140]	≤ 100
C[C@@H](CO)S(=O)(=O)Nc1cc(N2CCC3(CC2)CC3)c(C(=O)Nc2ccc([N+](=O)[O-])c(N3CCC(F)(F)CC3)n2)cn1 [Compound 141]	≤ 100
C[C@H](CO)S(=O)(=O)Nc1cc(N2CCC3(CC2)CC3)c(C(=O)Nc2ccc([N+](=O)[O-])c(N3CCC(F)(F)CC3)n2)cn1 [Compound 142]	≤ 100
